Measured values published in patent US20260049088A1, “TRICYCLIC HETEROCYCLIC DERIVATIVES, COMPOSITIONS AND USES THEREOF” (Danatlas Pharmaceuticals Co., Ltd., priority 2023, published 2026).

Target: T1, hPARG (Homo sapiens, UniProt Q86W56)
T1 construct: made in house; host or cells: E. coli
Test: PARG enzymatic activity assay (HTRF)
Format: biochemical
Settings: C-terminal His6-tag hPARG 65 pM, biotinylated-NAD ribosylated PARP1 substrate 8 nM
Method: HTRF assay was used to measure the ability of compounds to inhibit the activity of […] in vitro. C-terminal His6—tag PARG expressed in E. coli was purified and stored at −80° C. in aliquots. Assay measurements were performed with 1×buffer comprising 50 mM Tris pH 7.4, 0.1 mg/mL BSA, 3 mM EDTA, 0.4 mM EGTA, 1 mM DTT, 50 mM KCl and 0.01% Tween 20. Compounds dissolved in DMSO were plated into a 384-well assay plate (PerkinElmer, Catalog #: 6008280) in duplicate using a dispenser (Labcyte, Echo 665), and tested on a 10-point 4-fold serial dilution. Add 5 μL Enzyme mix [hPARG (C-terminal His6—tag, 4.2 μM), 65 pM final] to the test wells. The plates were covered and left to incubate for 60 minutes at RT before the addition of 5 μL substrate mix [biotinylated-NAD ribosylated PARP1 (6.1 μM), 8 nM final] to initiate reaction. After incubating 10 minutes at RT, add 2.5 μL Streptavidin-Eu cryptate (Cisbio, Catalog #: 610SAKLA) and 2.5 μL Mab anti 6HIS-XL665 (Cisbio, Catalog #: 61HISXLA) to the plate, and incubate for 60 minutes at RT. Read on a multimode plate reader (PerkinElmer, Envision 2015) in time-resolved fluorescence (TRF) mode, with excitation at 337 nm and emission at both 620 nm and 665 nm. Average HTRF signal of high control (Wells with 1% DMSO) was calculated and as Vehicle Control (VC). Average HTRF signal of low control (no Enzyme) was calculated and as Positive control (PC).
IC50 values were determined by fitting the data to the standard 4 parameters with Hill Slope using GraphPad Prism software.

T1 sequence (Q86W56 whole entry): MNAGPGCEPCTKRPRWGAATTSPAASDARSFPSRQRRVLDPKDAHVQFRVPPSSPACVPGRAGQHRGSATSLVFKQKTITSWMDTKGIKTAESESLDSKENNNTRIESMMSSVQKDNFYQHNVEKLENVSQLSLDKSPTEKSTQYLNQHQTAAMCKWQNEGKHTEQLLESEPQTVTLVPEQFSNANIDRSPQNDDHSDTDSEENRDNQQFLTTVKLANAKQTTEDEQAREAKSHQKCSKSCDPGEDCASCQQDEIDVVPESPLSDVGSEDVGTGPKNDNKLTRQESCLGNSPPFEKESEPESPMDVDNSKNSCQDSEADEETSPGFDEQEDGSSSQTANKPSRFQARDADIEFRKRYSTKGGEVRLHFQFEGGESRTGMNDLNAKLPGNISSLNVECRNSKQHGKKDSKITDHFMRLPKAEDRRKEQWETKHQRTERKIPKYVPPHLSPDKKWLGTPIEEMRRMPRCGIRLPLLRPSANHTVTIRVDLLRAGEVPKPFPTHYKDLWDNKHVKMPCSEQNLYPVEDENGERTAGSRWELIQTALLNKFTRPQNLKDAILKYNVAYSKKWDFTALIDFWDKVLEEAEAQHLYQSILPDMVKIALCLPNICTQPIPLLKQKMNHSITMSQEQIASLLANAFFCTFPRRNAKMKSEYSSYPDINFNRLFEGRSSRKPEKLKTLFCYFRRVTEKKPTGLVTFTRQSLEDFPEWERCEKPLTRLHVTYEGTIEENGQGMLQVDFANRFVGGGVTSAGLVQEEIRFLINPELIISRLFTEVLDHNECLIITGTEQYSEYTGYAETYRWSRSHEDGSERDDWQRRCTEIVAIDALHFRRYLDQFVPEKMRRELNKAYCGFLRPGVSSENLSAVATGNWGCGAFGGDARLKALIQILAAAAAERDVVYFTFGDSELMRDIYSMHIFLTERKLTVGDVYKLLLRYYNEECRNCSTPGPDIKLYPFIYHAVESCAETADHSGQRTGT

IC50 [µM] | SMILES
0.1 to 1 | CC(C)(O)CCc1ncnc2c1c1ccc(S(=O)(=O)NC3(C#N)CC3)cc1n2-c1nnc(C(F)F)s1 [Example 89, N-(1-Cyanocyclopropyl)-9-(5-(difluoromethyl)-1,3,4-thiadiazol-2-yl)-4-(3-hydroxy-3-methylbutyl)-9H-pyrimido[4,5-b]indole-7-sulfonamide]
≤ 0.1 | N#CC1(NS(=O)(=O)c2ccc3c4c(SCCO)ncnc4n(-c4nnc(C(F)F)s4)c3c2)CC1 [Example 27, N-(1-Cyanocyclopropyl)-9-(5-(difluoromethyl)-1,3,4-thiadiazol-2-yl)-4-((2-hydroxyethyl)thio)-9H-pyrimido[4,5-b]indole-7-sulfonamide]
≤ 0.1 | N#CC1(NS(=O)(=O)c2ccc3c4c(O[C@@H]5CCOC5)ncnc4n(-c4nnc(C(F)F)s4)c3c2)CC1 [Example 8, (R)-N-(1-Cyanocyclopropyl)-9-(5-(difluoromethyl)-1,3,4-thiadiazol-2-yl)-4-((tetrahydrofuran-3-yl)oxy)-9H-pyrimido[4,5-b]indole-7-sulfonamide]
≤ 0.1 | CN1C[C@@H]2C[C@H]1CN2c1ncnc2c1c1ccc(S(=O)(=O)NC3(C#N)CC3)cc1n2-c1nnc(C(F)F)s1 [Example 31, N-(1-Cyanocyclopropyl)-9-(5-(difluoromethyl)-1,3,4-thiadiazol-2-yl)-4-((1S,4S)-5-methyl-2,5-diazabicyclo[2.2.1]heptan-2-yl)-9H-pyrimido[4,5-b]indole-7-sulfonamide]
0.1 to 1 | N#CC1(NS(=O)(=O)c2ccc3c4c(OCC5COCCN5)ncnc4n(-c4nnc(C(F)F)s4)c3c2)CC1 (centres unmarked) [Example 92, N-(1-cyanocyclopropyl)-9-(5-(difluoromethyl)-1,3,4-thiadiazol-2-yl)-4-(morpholin-3-ylmethoxy)-9H-pyrimido[4,5-b]indole-7-sulfonamide]
≤ 0.1 | Cc1nnc2n1CCN(c1ncnc3c1c1ccc(S(=O)(=O)NC4(C#N)CC4)cc1n3-c1nnc(C(F)F)s1)C2 [Example 47, N-(1-Cyanocyclopropyl)-9-(5-(difluoromethyl)-1,3,4-thiadiazol-2-yl)-4-(3-methyl-5,6-dihydro-[1,2,4]triazolo[4,3-a]pyrazin-7(8H)-yl)-9H-pyrimido[4,5-b]indole-7-sulfonamide]
≤ 0.1 | CCN(CC)CCOc1ncnc2c1c1ccc(S(=O)(=O)NC3(C#N)CC3)cc1n2-c1nnc(C(F)F)s1 [Example 10, N-(1-Cyanocyclopropyl)-4-(2-(diethylamino)ethoxy)-9-(5-(difluoromethyl)-1,3,4-thiadiazol-2-yl)-9H-pyrimido[4,5-b]indole-7-sulfonamide]

The next lines start with the compound.

SMILES | IC50 [µM]
CN(C[C@H]1CC[C@@H](O)CC1)c1ncnc2c1c1ccc(S(=O)(=O)NC3(C#N)CC3)cc1n2-c1nnc(C(F)F)s1 [Example 73, N-(1-Cyanocyclopropyl)-9-(5-(difluoromethyl)-1,3,4-thiadiazol-2-yl)-4-((((1s,4s)-4-hydroxycyclohexyl)methyl)(methyl)amino)-9H-pyrimido[4,5-b]indole-7-sulfonamide] | ≤ 0.1
CN(CCN1CCCS1(=O)=O)c1ncnc2c1c1ccc(S(=O)(=O)NC3(C#N)CC3)cc1n2-c1nnc(C(F)F)s1 [Example 72, N-(1-Cyanocyclopropyl)-9-(5-(difluoromethyl)-1,3,4-thiadiazol-2-yl)-4-((2-(1,1-dioxidoisothiazolidin-2-yl)ethyl)(methyl)amino)-9H-pyrimido [4,5-b]indole-7-sulfonamide] | 0.1 to 1
CCN(CC)C1CCN(c2ncnc3c2c2ccc(S(=O)(=O)NC4(C#N)CC4)cc2n3-c2nnc(C(F)F)s2)CC1 [Example 28, N-(1-Cyanocyclopropyl)-4-(4-(diethylamino)piperidin-1-yl)-9-(5-(difluoromethyl)-1,3,4-thiadiazol-2-yl)-9H-pyrimido[4,5-b]indole-7-sulfonamide] | ≤ 0.1
CN(c1ncnc2c1c1ccc(S(=O)(=O)NC3(C#N)CC3)cc1n2-c1nnc(C(F)F)s1)[C@H]1CCOC1 [Example 70, (S)-N-(1-Cyanocyclopropyl)-9-(5-(difluoromethyl)-1,3,4-thiadiazol-2-yl)-4-(methyl(tetrahydrofuran-3-yl)amino)-9H-pyrimido[4,5-b]indole-7-sulfonamide] | 0.1 to 1
CN(CCN1CCS(=O)(=O)CC1)c1ncnc2c1c1ccc(S(=O)(=O)NC3(C#N)CC3)cc1n2-c1nnc(C(F)F)s1 [Example 78, N-(1-Cyanocyclopropyl)-9-(5-(difluoromethyl)-1,3,4-thiadiazol-2-yl)-4-((2-(1,1-dioxidothiomorpholino)ethyl)(methyl)amino)-9H-pyrimido[4,5-b]indole-7-sulfonamide] | ≤ 0.1
N#CC1(NS(=O)(=O)c2ccc3c4c(OCCN5CCOCC5)ncnc4n(-c4nnc(C(F)F)s4)c3c2)CC1 [Example 1, N-(1-Cyanocyclopropyl)-9-(5-(difluoromethyl)-1,3,4-thiadiazol-2-yl)-4-(2-morpholinoethoxy)-9H-pyrimido[4,5-b]indole-7-sulfonamide] | ≤ 0.1
CC(C)C(=O)N1CCN(CCOc2ncnc3c2c2ccc(S(=O)(=O)NC4(C#N)CC4)cc2n3-c2nnc(C(F)F)s2)CC1 [Example 4, N-(1-Cyanocyclopropyl)-9-(5-(difluoromethyl)-1,3,4-thiadiazol-2-yl)-4-(2-(4-isobutyrylpiperazin-1-yl)ethoxy)-9H-pyrimido[4,5-b]indole-7-sulfonamide] | ≤ 0.1
N#CC1(NS(=O)(=O)c2ccc3c4c(NC(=O)CN5CCOCC5)ncnc4n(-c4nnc(C(F)F)s4)c3c2)CC1 [Example 82, N-(7-(N-(1-Cyanocyclopropyl)sulfamoyl)-9-(5-(difluoromethyl)-1,3,4-thiadiazol-2-yl)-9H-pyrimido[4,5-b]indol-4-yl)-2-morpholinoacetamide] | ≤ 0.1
N#CC1(NS(=O)(=O)c2ccc3c4c(N5C[C@H]6C[C@@H]5CC6(F)F)ncnc4n(-c4nnc(C(F)F)s4)c3c2)CC1 [Example 40, N-(1-Cyanocyclopropyl)-4-((1R,4R)-5,5-difluoro-2-azabicyclo [2.2.1]heptan-2-yl)-9-(5-(difluoromethyl)-1,3,4-thiadiazol-2-yl)-9H-pyrimido[4,5-b]indole-7-sulfonamide] | 0.1 to 1
Cc1cnc2n1CCN(c1ncnc3c1c1ccc(S(=O)(=O)NC4(C#N)CC4)cc1n3-c1nnc(C(F)F)s1)C2 [Example 53, N-(1-Cyanocyclopropyl)-9-(5-(difluoromethyl)-1,3,4-thiadiazol-2-yl)-4-(3-methyl-5,6-dihydroimidazo[1,2-a]pyrazin-7(8H)-yl)-9H-pyrimido[4,5-b]indole-7-sulfonamide] | ≤ 0.1
CN(CCn1cccn1)c1ncnc2c1c1ccc(S(=O)(=O)NC3(C#N)CC3)cc1n2-c1nnc(C(F)F)s1 [Example 24, 4-((2-(1H-Pyrazol-1-yl)ethyl)(methyl)amino)-N-(1-cyanocyclopropyl)-9-(5-(difluoromethyl)-1,3,4-thiadiazol-2-yl)-9H-pyrimido[4,5-b]indole-7-sulfonamide] | 0.1 to 1
N#CC1(NS(=O)(=O)c2ccc3c4c(N5CCC(N6CCC(F)(F)CC6)[C@@H](F)C5)ncnc4n(-c4nnc(C(F)F)s4)c3c2)CC1 (stereo partly drawn) [Example 36, N-(1-Cyanocyclopropyl)-9-(5-(difluoromethyl)-1,3,4-thiadiazol-2-yl)-4-((3′S)-3′,4,4-trifluoro-[1,4′-bipiperidin]-1′-yl)-9H-pyrimido[4,5-b]indole-7-sulfonamide] | ≤ 0.1
N#CC1(NS(=O)(=O)c2ccc3c4c(OCC(=O)N5CCOCC5)ncnc4n(-c4nnc(C(F)F)s4)c3c2)CC1 [Example 11, N-(1-Cyanocyclopropyl)-9-(5-(difluoromethyl)-1,3,4-thiadiazol-2-yl)-4-(2-morpholino-2-oxoethoxy)-9H-pyrimido[4,5-b]indole-7-sulfonamide] | ≤ 0.1
CN(CC1CCCOC1)c1ncnc2c1c1ccc(S(=O)(=O)NC3(C#N)CC3)cc1n2-c1nnc(C(F)F)s1 (centres unmarked) [Example 68, N-(1-Cyanocyclopropyl)-9-(5-(difluoromethyl)-1,3,4-thiadiazol-2-yl)-4-(methyl((tetrahydro-2H-pyran-3-yl)methyl)amino)-9H-pyrimido[4,5-b]indole-7-sulfonamide] | ≤ 0.1
CN(CC1COCCN1C)c1ncnc2c1c1ccc(S(=O)(=O)NC3(C#N)CC3)cc1n2-c1nnc(C(F)F)s1 (centres unmarked) [Example 64, N-(1-Cyanocyclopropyl)-9-(5-(difluoromethyl)-1,3,4-thiadiazol-2-yl)-4-(methyl((4-methylmorpholin-3-yl)methyl)amino)-9H-pyrimido[4,5-b]indole-7-sulfonamide] | ≤ 0.1
CN(CCN1CCOCC1)c1ncnc2c1c1ccc(S(=O)(=O)NC3(C#N)CC3)cc1n2-c1nnc(C(F)F)s1 [Example 13, N-(1-cyanocyclopropyl)-9-(5-(difluoromethyl)-1,3,4-thiadiazol-2-yl)-4-(methyl(2-morpholinoethyl)amino)-9H-pyrimido[4,5-b]indole-7-sulfonamide] | ≤ 0.1
